Measured values: patent US9926297B2, “Bicyclic AZA compounds as muscarinic M1 receptor and/or M4 receptor agonists” (Heptares Therapeutics Limited, priority 2014, dated 2018)

Legend:
[1] = target: T1, human muscarinic M2 receptor (Homo sapiens, UniProt P08172); experiment: Alphascreen Surefire phospho-ERK1/2 functional assay, M2; settings: for Emax: CHO, read-out: % Emax cf. ACh, M2, CHO cells stably expressing human M2; for Emax / % Emax cf. ACh, M2: relative to ACh; for pEC50 M2 / % Emax cf. ACh, M2: CHO cells stably expressing human M2; for pEC50 M2: phospho-ERK1/2, * = variable results
T1 sequence (P08172 1-466): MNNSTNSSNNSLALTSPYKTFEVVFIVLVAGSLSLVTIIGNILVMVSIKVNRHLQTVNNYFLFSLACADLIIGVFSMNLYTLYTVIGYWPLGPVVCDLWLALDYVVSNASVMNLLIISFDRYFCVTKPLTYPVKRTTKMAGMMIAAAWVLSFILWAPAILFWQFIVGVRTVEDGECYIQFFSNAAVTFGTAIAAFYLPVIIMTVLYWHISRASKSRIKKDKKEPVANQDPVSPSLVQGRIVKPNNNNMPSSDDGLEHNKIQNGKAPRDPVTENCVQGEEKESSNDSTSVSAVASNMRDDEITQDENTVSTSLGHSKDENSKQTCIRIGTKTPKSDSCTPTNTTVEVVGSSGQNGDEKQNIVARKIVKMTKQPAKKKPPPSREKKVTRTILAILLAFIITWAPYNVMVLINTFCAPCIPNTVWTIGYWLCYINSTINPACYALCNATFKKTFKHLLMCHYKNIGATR

[2] = target: T2, human muscarinic M4 receptor (Homo sapiens, UniProt P08173); experiment: Alphascreen Surefire phospho-ERK1/2 functional assay, M4; assay type: cell-based; settings: for EC50 / % Emax cf. ACh, M4: CHO cells stably expressing human M4; for EC50: phospho-ERK1/2, * = variable results, read-out: pEC50 M4 (converted); for Emax: CHO, read-out: % Emax cf. ACh, M4, CHO cells stably expressing human M4; for Emax / % Emax cf. ACh, M4: relative to ACh
T2 construct: expressed in transfected cells
T2 sequence (P08173 1-479): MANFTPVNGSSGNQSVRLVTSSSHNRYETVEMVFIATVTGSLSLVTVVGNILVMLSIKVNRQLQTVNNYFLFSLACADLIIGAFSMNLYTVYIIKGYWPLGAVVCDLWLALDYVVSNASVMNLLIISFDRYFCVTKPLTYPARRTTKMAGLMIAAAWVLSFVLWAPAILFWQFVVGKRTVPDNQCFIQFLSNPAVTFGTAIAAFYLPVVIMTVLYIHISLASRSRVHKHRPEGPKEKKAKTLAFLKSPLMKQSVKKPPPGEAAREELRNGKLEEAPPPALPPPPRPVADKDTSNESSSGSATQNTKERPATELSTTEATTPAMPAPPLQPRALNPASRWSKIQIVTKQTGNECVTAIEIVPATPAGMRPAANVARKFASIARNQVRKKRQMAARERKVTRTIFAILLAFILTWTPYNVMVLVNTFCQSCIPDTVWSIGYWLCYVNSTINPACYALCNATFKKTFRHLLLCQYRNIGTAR

[3] = target: T3, human muscarinic M1 receptor (Homo sapiens, UniProt P11229); experiment: Alphascreen Surefire phospho-ERK1/2 functional assay, M1; assay type: cell-based; settings: for EC50 / % Emax cf. ACh, M1: CHO cells stably expressing human M1; for EC50: phospho-ERK1/2, * = variable results, read-out: pEC50 M1 (converted); for Emax: CHO, read-out: % Emax cf. ACh, M1, CHO cells stably expressing human M1; for Emax / % Emax cf. ACh, M1: relative to ACh
T3 sequence (P11229 1-460): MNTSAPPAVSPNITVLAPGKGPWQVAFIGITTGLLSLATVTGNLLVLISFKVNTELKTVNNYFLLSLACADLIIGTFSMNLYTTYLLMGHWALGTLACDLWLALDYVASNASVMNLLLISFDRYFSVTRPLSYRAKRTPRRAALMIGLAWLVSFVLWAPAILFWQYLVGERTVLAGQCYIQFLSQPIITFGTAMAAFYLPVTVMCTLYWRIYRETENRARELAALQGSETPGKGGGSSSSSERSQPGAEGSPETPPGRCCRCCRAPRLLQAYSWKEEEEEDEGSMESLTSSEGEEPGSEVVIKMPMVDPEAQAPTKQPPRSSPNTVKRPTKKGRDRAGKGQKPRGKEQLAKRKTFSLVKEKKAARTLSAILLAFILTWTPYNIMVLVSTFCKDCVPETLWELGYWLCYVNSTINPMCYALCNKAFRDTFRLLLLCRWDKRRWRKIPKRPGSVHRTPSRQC

[4] = target: human muscarinic M3 receptor (Homo sapiens, UniProt P20309); experiment: Alphascreen Surefire phospho-ERK1/2 functional assay, M3; settings: for Emax: CHO, read-out: % Emax cf. ACh, M3, CHO cells stably expressing human M3; for Emax / % Emax cf. ACh, M3: relative to ACh; for EC50: pEC50 M3, CHO cells stably expressing human M3; for EC50 / pEC50 M3: phospho-ERK1/2, * = variable results; for pEC50 M3 / % Emax cf. ACh, M3: CHO cells stably expressing human M3
human muscarinic M3 receptor, sequence (P20309 whole entry): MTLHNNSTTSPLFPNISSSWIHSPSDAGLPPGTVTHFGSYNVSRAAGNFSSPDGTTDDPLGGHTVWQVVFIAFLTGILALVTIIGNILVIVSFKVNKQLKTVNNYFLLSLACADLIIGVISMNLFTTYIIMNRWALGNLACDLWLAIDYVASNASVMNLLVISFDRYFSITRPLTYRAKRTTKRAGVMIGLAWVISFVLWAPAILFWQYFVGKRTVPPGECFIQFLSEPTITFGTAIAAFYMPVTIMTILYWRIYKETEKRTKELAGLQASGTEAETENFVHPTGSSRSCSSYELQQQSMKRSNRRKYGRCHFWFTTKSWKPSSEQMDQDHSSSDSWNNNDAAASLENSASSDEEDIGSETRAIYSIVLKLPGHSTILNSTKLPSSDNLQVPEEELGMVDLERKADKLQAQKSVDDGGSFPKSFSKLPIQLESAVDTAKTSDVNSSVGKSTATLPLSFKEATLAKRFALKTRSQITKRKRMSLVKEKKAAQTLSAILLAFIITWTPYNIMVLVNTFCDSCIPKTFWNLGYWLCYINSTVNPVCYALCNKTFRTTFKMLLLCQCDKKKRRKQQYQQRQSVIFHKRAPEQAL

Compound | EC50 [1] [nM] | Emax [1] [%] | EC50 [2] [nM] | Emax [2] [%] | EC50 [3] [nM] | Emax [3] [%] | Emax [4] [%] | EC50 [4] [nM] | % Emax cf. ACh, M4 [2] [%] | % Emax cf. ACh, M1 [3] [%] | pEC50 M2 [1] | % Emax cf. ACh, M2 [1] [%] | pEC50 M3 [4] | % Emax cf. ACh, M3 [4] [%]
CCNC(=O)N1CCCC1C1CCN(C2CC3(CCN(C(=O)OCC)C3)C2)CC1 (single isomer, unassigned) [2-19 Isomer 2, ethyl 2-{4-[1-(ethylcarbamoyl)pyrrolidin-2-yl]piperidin-1-yl}-6-azaspiro[3.4]octane-6-carboxylate] | > 20000 | 3 | 7.94 | 113 | 631 | 44 | 10 | > 20000 |  |  |  |  |  | 
CCOC(=O)N1CCC2(CC(N3CCC(C4CCCN4C(=O)N(C)C)CC3)C2)C1 (single isomer, unassigned) [2-20 Isomer 2, ethyl 2-{4-[1-(dimethylcarbamoyl)pyrrolidin-2-yl]piperidin-1-yl}-6-azaspiro[3.4]octane-6-carboxylate] | > 20000 | 1 | 31.6 | 106 | > 20000 | 24 | 6 | > 20000 |  |  |  |  |  | 
CCOC(=O)N1CCC2(CC(N3CCC([C@@H]4CCCN4C(=O)N(C)C)CC3)C2)C1 (single isomer, unassigned) [2-21 Isomer 2] | > 20000 | 4 | 7.94 | 113 | 631 | 46 | 2 | > 20000 |  |  |  |  |  | 
CCOC(=O)N1CCC2(CC(N3CCC(C4CCCN4C(=O)CNC)CC3)C2)C1 (single isomer, unassigned) [2-23 Isomer 2, ethyl 2-{4-[1-(N-methylglycyl)pyrrolidin-2-yl]piperidin-1-yl}-6-azaspiro[3.4]octane-6-carboxylate] | > 20000 | 3 | 50.1 | 104 | 1260 | 65 | 9 | > 20000 |  |  |  |  |  | 
CCOC(=O)N1CCC2(CC(N3CCC(C4CCCN4C(=O)NOC)CC3)C2)C1 (single isomer, unassigned) [2-24 Isomer 2, ethyl 2-{4-[1-(methoxycarbamoyl)pyrrolidin-2-yl]piperidin-1-yl}-6-azaspiro[3.4]octane-6-carboxylate] | > 20000 | 5 | 20 | 121 | 631 | 37 | 9 | > 20000 |  |  |  |  |  | 
CCOC(=O)N1CCC2(CC(N3CCC([C@@H]4CCCN4C(=O)NC(C)C)CC3)C2)C1 (single isomer, unassigned) [2-25 Isomer 2] | > 20000 | 6 | 10 | 86 | 631 | 74 | 2 | > 20000 |  |  |  |  |  | 
CCOC(=O)N1CCC2(CC(N3CCC([C@@H]4CCCN4C(=O)NCC(F)(F)F)CC3)C2)C1 (single isomer, unassigned) [2-26 Isomer 2] | > 20000 | 66 | 6.31 | 99 | 12.6 | 92 | 4 | > 20000 |  |  |  |  |  | 
CCOC(=O)N1CCC2(CC(N3CCC([C@@H]4CCCN4C(=O)N4CCC4)CC3)C2)C1 (single isomer, unassigned) [2-27 Isomer 2] | > 20000 | 0.4 | 10 | 73 | 31.6 | 24 | 15 | > 20000 |  |  |  |  |  | 
CCOC(=O)N1CCC2(CC(N3CCC([C@@H]4CCCN4C(=O)N4CCOCC4)CC3)C2)C1 (single isomer, unassigned) [2-28 Isomer 2] | > 20000 | 3 | 25.1 | 63 | > 20000 | 7 | 5 | > 20000 |  |  |  |  |  | 
CCOC(=O)N1CCC2(CC(N3CCC([C@@H]4CCCN4C(=O)NC4CC4)CC3)C2)C1 (single isomer, unassigned) [2-29 Isomer 2] | > 20000 | 5 | 15.8 | 110 | 501 | 60 | 13 | > 20000 |  |  |  |  |  | 
CCOC(=O)N1CCC2(CC(N3CCC([C@@H]4CCCN4C(=O)NC4CCC4)CC3)C2)C1 (single isomer, unassigned) [2-30 Isomer 2] | > 20000 | 52 | 15.8 | 97 | 501 | 34 | 13 | > 20000 |  |  |  |  |  | 
CCOC(=O)N1CCC2(CC(N3CCC([C@@H]4CCCN4C(=O)NCCOC)CC3)C2)C1 (single isomer, unassigned) [2-31 Isomer 2] | > 20000 | 7 | 3.16 | 108 | 126 | 93 | 7 | > 20000 |  |  |  |  |  | 

Results, then the compound that gave them:

EC50 [1] [nM] | Emax [1] [%] | EC50 [2] [nM] | Emax [2] [%] | EC50 [3] [nM] | Emax [3] [%] | Emax [4] [%] | EC50 [4] [nM] | % Emax cf. ACh, M4 [2] [%] | % Emax cf. ACh, M1 [3] [%] | pEC50 M2 [1] | % Emax cf. ACh, M2 [1] [%] | pEC50 M3 [4] | % Emax cf. ACh, M3 [4] [%] | Compound
> 20000 | 52 | 12.6 | 110 | 2510 | 69 | 11 | > 20000 |  |  |  |  |  |  | CCOC(=O)N1CCC2(CC(N3CCC([C@@H]4CCCN4C(=O)N4CCCC4)CC3)C2)C1 (single isomer, unassigned) [2-32 Isomer 2]
> 20000 | 8 | 7.94 |  | 398 |  | 3 | > 20000 | 109 | 86 |  |  |  |  | CCOC(=O)N1CCC2(CC(N3CCC([C@@H]4CCCN4C(=O)NOC)CC3)C2)C1 (single isomer, unassigned) [2-33 Isomer 1]
 |  | 20 |  | > 20000 |  |  |  | 65 | 4 | < 4.7 | 5 | < 4.7 | 5 | CCOC(=O)N1CCC2(CC(N3CCC([C@@H]4CCCN4C(=O)NOC)CC3)C2)C1 (single isomer, unassigned) [2-33 Isomer 2]
> 20000 |  | 25.1 |  | 2000 | 74 |  | > 20000 | 89 |  |  | 16 |  | 8 | CCOC(=O)N1CCC2(CC(N3CCC([C@@H]4CCCN4C(=O)N(C)OC)CC3)C2)C1 (single isomer, unassigned) [2-34 Isomer 1]
 |  | 251 |  | 3160 |  |  |  | 58 | 56 | < 4.7 | 3 | < 4.7 | 39 | CCOC(=O)N1CCC2(CC(N3CCC([C@@H]4CCCN4C(=O)N(C)OC)CC3)C2)C1 (single isomer, unassigned) [2-34 Isomer 2]
> 20000 | 1 | 15.8 | 92 | 398 | 108 | 4 | > 20000 |  |  |  |  |  |  | CCOC(=O)N1CCC2(CC(N3CCC([C@@H]4CCCN4C(=O)NC4(C)CCC4)CC3)C2)C1 (single isomer, unassigned) [2-35 Isomer 2]
